Experimental findings from patent US20240279190A1, “COMPOUNDS FOR MODULATING PLATELET-TYPE 12-(S)-LIPOXYGENASE AND METHODS OF USE FOR SAME” (The Regents of The University of California, priority 2021, published 2024) are described below.

SMILES strings stand for the structures. Numbering of substitutions follows the chain as printed.

In assay [1] the target is T1, 12-LOX mutant A417I/V418M (Homo sapiens, UniProt P18054, A417I/V418M).
T1 construct: 6xHis (N); made in house; pFastBac1 shuttle vector
T1 sequence (P18054 1-663 A417I/V418M): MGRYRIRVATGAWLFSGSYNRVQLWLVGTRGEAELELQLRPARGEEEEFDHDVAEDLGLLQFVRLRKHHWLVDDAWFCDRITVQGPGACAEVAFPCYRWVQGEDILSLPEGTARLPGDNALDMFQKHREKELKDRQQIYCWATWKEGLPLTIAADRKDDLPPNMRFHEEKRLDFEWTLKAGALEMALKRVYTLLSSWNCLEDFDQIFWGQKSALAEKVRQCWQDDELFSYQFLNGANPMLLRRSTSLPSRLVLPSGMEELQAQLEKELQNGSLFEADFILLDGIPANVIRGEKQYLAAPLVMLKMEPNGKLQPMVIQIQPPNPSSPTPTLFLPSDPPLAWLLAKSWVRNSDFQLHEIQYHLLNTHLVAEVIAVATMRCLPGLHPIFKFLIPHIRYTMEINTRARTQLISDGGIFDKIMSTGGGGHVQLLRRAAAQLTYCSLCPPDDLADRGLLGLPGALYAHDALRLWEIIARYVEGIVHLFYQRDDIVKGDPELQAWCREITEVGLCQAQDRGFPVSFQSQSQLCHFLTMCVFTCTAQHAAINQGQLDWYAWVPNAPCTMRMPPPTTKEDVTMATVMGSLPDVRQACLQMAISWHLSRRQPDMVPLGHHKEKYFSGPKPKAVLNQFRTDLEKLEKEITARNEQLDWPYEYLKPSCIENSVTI
As to the kind of experiment: UV-Vis-based IC50 assay, A417I/V418M mutant. In kind it is biochemical. An excerpt: Based on the ML355 binding mode predicted by the modeling, all residues within 5 Å of any atom of ML355 were selected for experimental mutagenesis. The selected residues were replaced with amino acids with either bulkier or smaller side chains in order to determine what specific interactions play a role in inhibitor binding. […] The numbering refers to the UniProt accession number P18054 sequence, with the N-terminal methionine assigned as amino acid number one. The primers for all mutants were designed using the online QuikChange Primer Design tool (http://www.genomics.agilent.com/primerDesignProgram.jsp) from Agilent Technologies (CA, USA). The mutations were introduced by using the QuikChange® II XL site-directed mutagenesis kit from Agilent, following the instructions in the protocol provided. […]
(§1) The wild type 12-LOX (wt-12-LOX) enzyme and its mutants were expressed as fusion proteins, with an N-terminal 6×His tag, and were affinity purified by nickel-iminodiacetic acid agarose using FPLC (Biorad).
The percent inhibition was determined by comparing the enzyme rates of the control (DMSO solvent) and the inhibitor sample by following the formation of the conjugated diene product at 234 nm (ε=25,000 M^−1cm^−1). […] The substrate concentration was quantitatively determined by allowing the enzymatic reaction to go to completion in the presence of soybean LOX-1. […]

The target of a further assay is T2, wt12-LOX (Homo sapiens, UniProt P18054).
T2 construct: 6xHis (N); made in house; insert in pFastBac1 shuttle vector (baculovirus system, own inference)
T2 sequence (P18054 1-663): T1 sequence (P18054 1-663 A417I/V418M) with I417A, M418V
In words: UV-Vis-based IC50 assay, wild type 12-LOX. In kind it is biochemical. The protocol: as §1
The percent inhibition was determined by comparing the enzyme rates of the control (DMSO solvent) and the inhibitor sample by following the formation of the conjugated diene product at 234 nm (ε=25,000 M^−1cm^−1). The reactions were initiated by adding 200 nM 15-LOX-2, 30 nM 12-LOX, 40 nM 15-LOX-1, or approximately 100-300 nM (total protein) of 5-LOX ammonium sulfate fraction to a cuvette with 2 mL reaction buffer, constantly stirred using a magnetic stir bar at room temperature (22° C.). Reaction buffers used for various LOX isozymes were as follows: 25 mM HEPES (pH 7.3), 0.3 mM CaCl2), 0.1 mM EDTA, 0.2 mM ATP, 0.01% Triton X-100, 10 μM AA for the crude, ammonium sulfate precipitated 5-LOX; and 25 mM HEPES (pH 7.5), 0.01% Triton X-100, 10 μM AA for 15-LOX-2, 15-LOX-1, and 12-LOX. The substrate concentration was quantitatively determined by allowing the enzymatic reaction to go to completion in the presence of soybean LOX-1. IC50 values were obtained by determining the % inhibition, relative to solvent vehicle only, at various inhibitor concentrations. […]

What is called IC50 is the concentration needed to halve the response being measured. With `COc1cccc(CNc2ccc(S(=O)(=O)Nc3nc4c(ccc5ccccc54)s3)cc2)c1O` [Compound LOX-12-001, 4-((2-hydroxy-3-methoxybenzyl)amino)-N-(naphtho[1,2-d]thiazol-2-yl)benzenesulfonamide], the IC50 stood at 0.12 ± 0.04 µM in assay [1] (A417I/V418M) and 0.05 ± 0.02 µM against wt12-LOX (wt12-LOX, 10 μM AA, 25 mM HEPES pH 7.5, 22° C.). For the same molecule, the “fold decrease in potency (increase in IC50) compared to wt12-LOX” value in assay [1] (A417I/V418M vs wt12-LOX) is 2.4 fold. For the same molecule, at wt12-LOX (against wt12-LOX), the “fold increase in potency relative to ML355” value was found to be 7.2 fold.
